Laboratory results reported in publication PMC6152791, “Synthesis and Evaluation of Novel 2-Pyrrolidone-Fused (2-Oxoindolin-3-ylidene)methylpyrrole Derivatives as Potential Multi-Target Tyrosine Kinase Receptor Inhibitors” (Molecules : A Journal of Synthetic Chemistry and Natural …, 2017).

What was measured:
[1] = test system: 786-O; assay: Cell proliferation assay (MTT); type: cell-based, human; settings: for IC50: Homo sapiens, 786-0, MTT, 72 h incubation; for Selective Index (SI) 786-O: relative to Detroit 551 normal fibroblasts
Description: (§1) At the end of the incubation, cell viability was determined by 3-(4,5-dimethylthiazol-2-yl)-2,5-diphenyl tetrazolium bromide (MTT). The MTT formazan crystals were dissolved by DMSO, and the absorbance at 570 nm using a microplate spectrophotometer (Thermo Fisher Scientific, Waltham, MA, USA).

[2] = test system: HCT116; assay: Cell proliferation assay (MTT); type: cell-based, human; settings: for IC50: Homo sapiens, HCT-116, MTT, 72 h incubation; for Selective Index (SI) HCT116: relative to Detroit 551 normal fibroblasts
Description: as §1

[3] = test system: NCI-H460; assay: Cell proliferation assay (MTT); type: cell-based, human; settings: for IC50: Homo sapiens, NCI-H460, MTT, 72 h incubation; for Selective Index (SI) NCI-H460: relative to Detroit 551 normal fibroblasts
Description: as §1

[4] = test system: Detroit 551; assay: Cell proliferation assay (MTT) on normal fibroblasts; type: cell-based; settings: Homo sapiens, 72 h incubation, normal fibroblast cells
Description: The HCT116 (human colon cancer cells, BCRC 60349) and Detroit 551 (human normal fibroblast cells, BCRC 60118) were maintained in DMEM (Gibco, Grand Island, NY, USA) containing 10% FBS (HyClone, Logan, UT, USA). NCI-H460 (BCRC 60373) and 786-O (BCRC 60243) were maintained in RPMI 1640 (Gibco, Grand Island, NY, USA) containing 10% FBS (HyClone, Logan, UT, USA). They were incubated at 37 °C in a 5% CO2 atmosphere.
The cells incubated as above were plated at a density of 2000 cells/well (cancer cells) or 10,000 cells/well (Detroit 551) on a 96-well plate for 24 h; serial dilutions of indicated compounds were added and incubated for additional 72 h. At the end of the incubation, cell viability was determined by 3-(4,5-dimethylthiazol-2-yl)-2,5-diphenyl tetrazolium bromide (MTT). The MTT formazan crystals were dissolved by DMSO, and the absorbance at 570 nm using a microplate spectrophotometer (Thermo Fisher Scientific, Waltham, MA, USA).

[5] = target: T1, PDGFRβ (Homo sapiens, UniProt P09619); assay: In vitro kinase assay (HotSpot, 33P); type: biochemical; settings: ATP 10.0 μM; for inhibition at 0.05 µM: 50 nM compound
T1 construct: purchased Reaction Biology Corporation
T1 sequence (P09619 33-1106): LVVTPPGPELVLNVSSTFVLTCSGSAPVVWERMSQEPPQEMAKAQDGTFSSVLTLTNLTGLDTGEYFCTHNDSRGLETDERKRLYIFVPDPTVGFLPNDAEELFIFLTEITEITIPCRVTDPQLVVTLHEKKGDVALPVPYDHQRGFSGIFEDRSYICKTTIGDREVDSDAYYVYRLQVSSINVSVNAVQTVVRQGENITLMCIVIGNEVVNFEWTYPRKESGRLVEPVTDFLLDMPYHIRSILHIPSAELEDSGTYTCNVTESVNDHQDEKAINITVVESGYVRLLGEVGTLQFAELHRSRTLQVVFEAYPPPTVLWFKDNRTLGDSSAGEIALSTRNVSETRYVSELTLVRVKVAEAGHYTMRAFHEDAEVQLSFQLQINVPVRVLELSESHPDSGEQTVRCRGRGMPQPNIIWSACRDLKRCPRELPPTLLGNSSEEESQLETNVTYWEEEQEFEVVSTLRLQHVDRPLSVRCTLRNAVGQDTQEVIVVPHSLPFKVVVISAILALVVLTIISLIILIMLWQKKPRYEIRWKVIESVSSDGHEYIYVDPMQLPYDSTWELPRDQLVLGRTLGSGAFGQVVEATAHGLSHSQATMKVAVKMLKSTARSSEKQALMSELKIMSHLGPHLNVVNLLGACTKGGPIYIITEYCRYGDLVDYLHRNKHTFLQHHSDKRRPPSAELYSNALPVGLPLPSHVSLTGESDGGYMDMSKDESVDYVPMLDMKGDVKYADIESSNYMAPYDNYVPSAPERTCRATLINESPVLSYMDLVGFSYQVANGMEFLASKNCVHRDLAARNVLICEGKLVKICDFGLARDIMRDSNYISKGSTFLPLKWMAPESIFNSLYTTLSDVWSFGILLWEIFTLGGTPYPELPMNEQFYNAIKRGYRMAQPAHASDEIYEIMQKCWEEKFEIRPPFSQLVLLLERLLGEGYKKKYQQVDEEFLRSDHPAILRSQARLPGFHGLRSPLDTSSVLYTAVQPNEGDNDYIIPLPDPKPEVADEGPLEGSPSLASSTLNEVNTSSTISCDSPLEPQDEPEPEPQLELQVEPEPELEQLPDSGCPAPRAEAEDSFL
Description: (§2) Briefly, specific kinase and substrate and required cofactors were prepared in reaction buffer. Test compounds were added into the reaction, after 20 min, a mixture of ATP (Sigma, St. Louis, MO, USA) and ^33P ATP (Perkin Elmer, Waltham, MA, USA) was added to make a final concentration of 10.0 μM. Reactions were stood at room temperature for 120 min, and spot the reactions onto P81 ion exchange filter paper (Whatman Inc., Piscataway, NJ, USA). Unbound phosphate was removed by extensive washing of filters in 0.1% phosphoric acid. Kinase activity data was reported as the percent remaining kinase activity in test compounds compared to solvent control (DMSO).

[6] = target: T2, VEGFR-2 (Homo sapiens, UniProt P35968); assay: In vitro kinase assay (HotSpot, 33P); type: biochemical; settings: ATP 10.0 μM; for inhibition at 0.05 µM: 50 nM compound
T2 construct: purchased Reaction Biology Corporation
T2 sequence (P35968 20-1356): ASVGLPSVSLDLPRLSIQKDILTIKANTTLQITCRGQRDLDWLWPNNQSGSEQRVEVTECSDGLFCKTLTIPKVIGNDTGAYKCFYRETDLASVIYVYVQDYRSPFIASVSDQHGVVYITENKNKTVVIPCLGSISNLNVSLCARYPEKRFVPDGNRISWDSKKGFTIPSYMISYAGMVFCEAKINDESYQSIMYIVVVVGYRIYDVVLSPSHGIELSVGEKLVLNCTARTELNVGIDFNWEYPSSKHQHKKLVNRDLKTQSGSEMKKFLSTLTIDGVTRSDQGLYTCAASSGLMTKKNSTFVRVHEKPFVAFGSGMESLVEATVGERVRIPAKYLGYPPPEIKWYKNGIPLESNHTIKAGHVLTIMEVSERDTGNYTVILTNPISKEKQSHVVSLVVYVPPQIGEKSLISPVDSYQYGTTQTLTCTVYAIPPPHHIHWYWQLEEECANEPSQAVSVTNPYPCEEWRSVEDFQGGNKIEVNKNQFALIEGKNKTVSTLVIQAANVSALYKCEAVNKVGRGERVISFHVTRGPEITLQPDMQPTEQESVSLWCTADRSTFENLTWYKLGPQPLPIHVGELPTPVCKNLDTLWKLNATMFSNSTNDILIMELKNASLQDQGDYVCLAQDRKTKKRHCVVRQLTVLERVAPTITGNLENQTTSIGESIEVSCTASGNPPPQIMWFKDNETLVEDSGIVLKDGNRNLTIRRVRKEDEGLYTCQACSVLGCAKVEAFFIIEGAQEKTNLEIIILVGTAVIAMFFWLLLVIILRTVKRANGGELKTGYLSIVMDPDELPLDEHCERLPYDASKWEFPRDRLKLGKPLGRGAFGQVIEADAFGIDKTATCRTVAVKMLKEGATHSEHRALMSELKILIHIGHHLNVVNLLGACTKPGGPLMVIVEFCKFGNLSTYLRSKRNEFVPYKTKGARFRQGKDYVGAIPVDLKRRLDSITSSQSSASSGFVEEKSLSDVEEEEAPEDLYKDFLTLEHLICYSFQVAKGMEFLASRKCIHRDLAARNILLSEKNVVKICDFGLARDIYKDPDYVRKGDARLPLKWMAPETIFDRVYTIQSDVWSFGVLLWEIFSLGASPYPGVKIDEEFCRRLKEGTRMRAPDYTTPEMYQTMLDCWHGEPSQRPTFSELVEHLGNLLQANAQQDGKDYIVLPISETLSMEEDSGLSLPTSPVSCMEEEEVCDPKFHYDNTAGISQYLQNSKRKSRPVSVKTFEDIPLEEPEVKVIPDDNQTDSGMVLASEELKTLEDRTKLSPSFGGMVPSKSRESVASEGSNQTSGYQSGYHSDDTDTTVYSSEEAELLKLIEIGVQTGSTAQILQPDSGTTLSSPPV
Description: as §2

[7] = target: T3, aurora A (Homo sapiens, UniProt O14965); assay: In vitro kinase assay (HotSpot, 33P); type: biochemical; settings: 1.0 μM compound, ATP 10.0 μM
T3 construct: purchased Reaction Biology Corporation
T3 sequence (O14965 1-403): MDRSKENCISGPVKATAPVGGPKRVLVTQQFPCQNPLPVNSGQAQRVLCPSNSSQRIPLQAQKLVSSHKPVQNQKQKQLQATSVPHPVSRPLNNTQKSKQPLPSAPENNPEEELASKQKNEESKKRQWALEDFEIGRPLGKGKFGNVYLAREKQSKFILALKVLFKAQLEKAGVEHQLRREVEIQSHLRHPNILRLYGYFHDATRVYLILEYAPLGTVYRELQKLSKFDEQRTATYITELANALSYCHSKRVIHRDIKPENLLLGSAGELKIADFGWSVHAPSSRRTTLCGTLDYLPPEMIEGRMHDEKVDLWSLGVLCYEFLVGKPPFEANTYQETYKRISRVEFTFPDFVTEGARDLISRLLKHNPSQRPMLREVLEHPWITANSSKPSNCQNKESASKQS
Description: as §2, with “[…]. Briefly,” for “Briefly,”

[8] = test system: HUVECs; assay: In vitro VEGF-induced tube formation assay (Kurabo angiogenesis kit); type: cell-based, human; settings: for IC50: Homo sapiens, HUVEC, 264 h, VEGF 10 ng/mL, 11 days, read-out: IC50 of Tube Area
Description: Angiogenesis Kit (Kurabo, Neyagawa, Osaka, Japan) was used in accordance with the manufacturer’s protocols. Briefly, HUVECs and fibroblasts were co-cultured in 24-well plates with basal medium or solvent control medium (basal medium containing 1.0% DMSO) or solvent control medium containing 9, 10, 11, and 12 (0.50 μM, 0.25 μM and 0.10 μM). The medium renewals with or without agent in cultures were conducted every 3 days. After 11 days HUVECs were fixed and stained with anti-CD31 antibody in line with the manufacturer’s protocols. The tube formation area were measured using Angiogenesis Image Analyzer (Kurabo, Neyagawa, Osaka, Japan) with suaramin (70 μM) as positive control.

[9] = test system: HCT116 cells; assay: Cell cycle profile by image cytometry; type: cell-based, human; settings: 24 h
Description: Cell cycle profiles of HCT116 cells were determined with an NC-3000 image cytometer (ChemoMetec, Allerod, Denmark) in accordance with manufacturer’s protocol. Briefly, cells were seeded at 200,000 cells/well on a 6-well plate for 24 h. […] After incubation for 24 h, 100,000 cells were harvested and centrifuged for 5 min at 400 g at room temperature, washed once with PBS […] and resuspended with 50 μL of lysis buffer (ChemoMetec, Allerod, Denmark) containing 10 μg/mL of 2-(4-amidinophenyl)-1H-indole-6-carboxamidine (DAPI, ChemoMetec, Allerod, Denmark). The cells were incubated at 37 °C for 5 min, 50 μL of stabilization buffer (ChemoMetec, Allerod, Denmark) was added to the solution, and the cellular fluorescence was measured with an NC-3000 image cytometer using NC-SlideA8 (ChemoMetec, Allerod, Denmark). The NC-3000 software (ChemoMetec, Allerod, Denmark) was used for image acquisition, image analysis and quantification and data visualization.

[10] = test system: Detroit 551, HCT116, NCI-H460 and 786-O cell lines; assay: Acute cytotoxicity (WST-8, Cell-Counting-Kit-8); type: cell-based, human; settings: 10 μM, 6 h, WST-8, all tested cell lines
Description: Cells were seeded at 5000 cells/well on a 96-well plate for 24 h. The indicated compounds in different concentration (100 μL) were added to cells. Post 6 h, old medium was aspirated, and cells were washed three times with PBS. WST-8 (Dojindo, Rockville, MD, USA) (10 µL) was added to each well, and the absorbance of the plate was recorded at 450 nm on a microplate spectrophotometer (Thermo Fisher Scientific, Waltham, MA, USA).

SMILES	IC50 [1]	Selective Index (SI) 786-O [1]	IC50 [2]	Selective Index (SI) HCT116 [2]	IC50 [3]	Selective Index (SI) NCI-H460 [3]	IC50 [4]	inhibition at 0.05 µM [5]	IC50 [5]	inhibition at 0.05 µM [6]	IC50 [6]	inhibition at 1 µM [7]	IC50 [8]	tube formation IC50, fold stronger than sunitinib ([8]; vs sunitinib)	cell cycle profile effect ([9]; 1.0 μM)	melting point	cell cycle profile effect ([9]; 5.0 μM)	anti-proliferation potency against HCT116, fold stronger than 8 ([2]; vs 8 (C(5)-H))	anti-proliferation potency against HCT116, fold stronger than sunitinib ([2]; vs sunitinib)	acute cellular toxicity [10]
CCN(CC)CCN1Cc2[nH]c(/C=C3\C(=O)Nc4ccc(Br)cc43)c(C)c2C1=O [Compound 11, (Z)-5-Bromo-3-((5-(2-(diethylamino)ethyl)-3-methyl-4-oxo-1,4,5,6-tetrahydropyrrolo[3,4-b]pyrrol-2-yl)methylene)indolin-2-one]	7060 ± 300 nM	>1.42	1050 ± 180 nM	>9.52	6570 ± 1640 nM	>1.52	> 10000 nM	68%	16.1 nM	64%	24.7 nM	93.1%	179 ± 29 nM	approximately 2 fold	increase phase of polyploid	266 to 267 °C				
CCN(CC)CCN1Cc2[nH]c(/C=C3\C(=O)Nc4ccc(Cl)cc43)c(C)c2C1=O [Compound 10, (Z)-5-Chloro-3-((5-(2-(diethylamino)ethyl)-3-methyl-4-oxo-1,4,5,6-tetrahydropyrrolo[3,4-b]pyrrol-2-yl)methylene)indolin-2-one]	7300 ± 1200 nM	>1.37	3090 ± 700 nM	>3.23	> 10000 nM		> 10000 nM	64%	24.9 nM	58%	35 nM	93.7%	299 ± 70 nM			252 to 253 °C	G0/G1 cell cycle arrest			
CCN(CC)CCN1Cc2[nH]c(/C=C3\C(=O)Nc4ccccc43)c(C)c2C1=O [Compound 8, (Z)-3-((5-(2-(Diethylamino)ethyl)-3-methyl-4-oxo-1,4,5,6-tetrahydropyrrolo[3,4-b]pyrrol-2-yl)methylene)indolin-2-one]	> 10000 nM		4250 ± 1880 nM	>2.35	> 10000 nM		> 10000 nM	64%	22.4 nM	56%	30.2 nM	95.9%	310 ± 15 nM			167 to 168 °C	increase phase of polyploid			
CCN(CC)CCN1Cc2[nH]c(/C=C3\C(=O)Nc4ccc(I)cc43)c(C)c2C1=O [Compound 12, (Z)-3-((5-(2-(Diethylamino)ethyl)-3-methyl-4-oxo-1,4,5,6-tetrahydropyrrolo[3,4-b]pyrrol-2-yl)methylene)-5-iodoindolin-2-one]	7760 ± 290 nM	1.19	420 ± 160 nM	21.93	2950 ± 830 nM	3.12	9210 ± 1610 nM	62%	29.3 nM	58%	35.1 nM	92.9%	313 ± 37 nM		G0/G1 cell cycle arrest	267 to 268 °C		~10 fold	approximately 8 fold	
CCN(CC)CCN1Cc2[nH]c(/C=C3\C(=O)Nc4ccc(F)cc43)c(C)c2C1=O [Compound 9, (Z)-3-((5-(2-(Diethylamino)ethyl)-3-methyl-4-oxo-1,4,5,6-tetrahydropyrrolo[3,4-b]pyrrol-2-yl)methylene)-5-fluoroindolin-2-one]	> 10000 nM		2940 ± 660 nM	>3.4	> 10000 nM		> 10000 nM	36%	97.5 nM	35%	111 nM	93.1%	367 ± 16 nM			245 to 246 °C	G0/G1 cell cycle arrest			
CCN(CC)CCNC(=O)c1c(C)[nH]c(/C=C2\C(=O)Nc3ccc(F)cc32)c1C [Sunitinib, sunitinib, reference compound]	6270 ± 670 nM		3420 ± 570 nM		6230 ± 570 nM			44%					387 ± 16 nM				G0/G1 cell cycle arrest			nearly free from acute cellular toxicity
